According to US10759777B2, “Carbazole-containing amides, carbamates, and ureas as cryptochrome modulators” (Synchronicity Pharma, Inc., priority 2014, dated 2020):

Legend:
[1] = test system: core clock genes Per2, Bmal1, Cry2 in liver; test: Four day study, liver core clock gene mRNA in ICR mice; format: in vivo, mouse; details: 50 mg/kg PO BID 4 days
Description: Male ICR mice (weighing 30-35 g), obtained from Charles River Laboratories (Hollister, Calif.), were used for the experiment following at least 3 days of acclimation. Mice were dosed with vehicle (WFI or 10% Kolliphor) or compound (50 mg/kg, dose volume 5 mL/kg, PO) for 4 days BID (twice a day), beginning in the afternoon of the first day. The last dose of compound or vehicle was administered on the morning of harvest. On the day of harvest (6 hours following the final dose), mice were euthanized by CO2 asphyxiation and 50 mg of liver tissue was excised and placed in a tube containing 500 μl of RNA later.
E.Z.N.A.® HP Total RNA Isolation Kits (R6812-01 and the protocol described in the Manual, Revised 2010) were utilized to prepare and isolate RNA from the liver samples. To prepare the RNA samples, 10-30 mg of sample was removed from RNA-Later and placed in a 1.5 ml microfuge tube. GTC lysis buffer (700 μl) was added to the tissue, which was homogenized with a rotor-stator homogenizer (e.g. Tissue-Tearor, Model #985370 BioSpec Products with 4.5 mm probe, Cat. #985370-04), and then centrifuged at full speed (≥13,000×g) for 5 minutes. The cleared supernatant was transferred by pipetting to a DNA Clearance Column Pre-inserted in a 2 mL Collection Tube. The assembled column was centrifuged at 13,000×g for 1 minute, and the flow-through was saved. An equal volume (700 μl) of 70% ethanol was added to the lysate and mixed. The sample was then applied to a HiBind RNA spin column placed into a 2 ml collection tube, which was centrifuged at 10,000×g for 60 seconds at room temperature. RNA Wash Buffer I (250 μl) was added by pipetting directly onto a new HiBind RNA column inserted in a 2 ml collection tube. The assembled column was centrifuged at 10,000×g for 60 seconds. The RNA column was placed into a new 2 ml collection tube. DNase I stock solution is pipetted (75 μl) directly onto the surface of the HiBind RNA resin in each column (Using DNAse Digestion with RNase Free DNase Set (E1091): for each HiBind RNA column, the DNase I stock solution was prepared as followed: E.Z.N.A.® DNase I Digestion Buffer 73.5 μl, RNase Free DNase I (20 Kunitz/μl) 1.5 μl=Total Volume 75 μl). The column with bound RNA was incubated at room temperature (25-30° C.) for 15 minutes. RNA Wash Buffer I (500 μl) was added to the column and placed on a bench top for 2 minutes. After centrifuging at 10,000×g for 60 seconds, discarding the flow-through, 500 μl of RNA Wash Buffer II was added and centrifuged at 10,000×g for 60 seconds. Another 500 μl of RNA Wash Buffer II was added and the column assembly was centrifuged at 10,000×g for 60 seconds. The column was centrifuged for 2 minutes at maximum speed to completely dry the HiBind matrix. The column was placed in a clean 1.5 ml microcentrifuge tube and 40-70 μl of molecular biology grade water is added. After sitting for 1 minute, the column was centrifuged for 2 minutes at maximum speed to elute the RNA. The isolated RNA was collected into the collection tube.
RediPlate 96 RiboGreen RNA Quantification Kit (Invitrogen) RediPlate standard curve was prepared by transferring 20 l reconstituted RNA standard to a RediPlate well reconstituted in 180 l RediPlate TE buffer. For liver RNAs prepared from 30-100 mg of tissue using a kit similar to the Omega Bio-Tek HP Total RNA Kit and eluted in RNAse-free water in a volume of 50 l (microliters), 5 l of the total RNA is diluted in 195 l of RediPlate TE buffer (1:40 dilution of RNA), mix. After transferring 5 l to RediPlate well reconstituted in 195 l TE buffer and incubating 10 min. at RT, Fluorescence Intensity of wells with standards and samples were read in a Tecan M200 with Excitation set at 480 nm and Emission set at 520 nm with the gain set to ˜70%. Alternatively, one can use the FlexStation 3 with Ex 488 nm and Em 525 nm and a Cutoff of 515 nm.

[2] = test system: core clock gene mRNAs in liver; test: Single dose at peak or nadir of Cry1 expression, liver core clock gene mRNAs; format: in vivo, mouse; details: single dose at ZT0 (peak) or ZT10 (nadir); liver 7.5 hours later
Description: For compounds that interact directly with the core clock mechanism, the time of dosing may be critical for maximizing their effects. […] The former (ZTO) is coincident with the peak of Cry1 and Bmal1 protein in mouse liver and the latter (ZT10) corresponds to the approximate nadir of Cry1 and Bmal1. Liver tissue was taken 7.5 hours later for each, and the samples were examined for core clock gene mRNAs by RT-qPCR.

[3] = test system: db/db mouse model of type II diabetes; test: Compound 72 administered over 7 days in db/db mice (glucose, insulin, compound levels); format: in vivo; details: 50 mg/kg PO QD 7 days
Text: (§1) Significance was accepted when p<0.05.

C57/Bl6J DIO mice [4] = test: Compound 72 in diet-induced obesity (DIO) mouse model; format: in vivo; details: 100 mg/kg PO QD 7 days
Text: (§2) Male C57/Bl6J DIO mice were obtained from The Jackson Laboratory (Sacramento, Calif.). […] Animals were accustomed to these conditions for at least 2 weeks before experimentation and used at approximately 24 weeks of age.
as §1

C57/Bl6J DIO mice [5] = test: Increasing dosages of Compound 72 in diet-induced obesity (DIO) mouse model; format: in vivo; details: 10, 30, 100 mg/kg PO QD 7 days
Text: as §2, §1
Male C57/Bl6J DIO mice were obtained from The Jackson Laboratory (Sacramento, Calif.). […] Animals were accustomed to these conditions for at least 2 weeks before experimentation and used at approximately 26 weeks of age.

## O=C1NCCN1CC(O)Cn1c2ccc(F)cc2c2cc(F)ccc21 (centres unmarked) [Compound 72, 1-(3-(3,6-difluoro-9H-carbazol-9-yl)-2-hydroxypropyl)imidazolidin-2-one]
[1]; ZT6
  liver Per2 expression: suppression
[1]; liver
  Cry2 transcripts: decrease
  increase in Bmal1 mRNA at ZT6: 4 fold
[2]
  impact on core clock mRNAs, dosing at peak vs nadir of Cry1: greater relative impact on the clock mRNAs at the peak compared to the nadir
[3]; db/db mice
  OGTT glucose course: lower than the vehicle control group
[3]; vs vehicle
  reduction of HOMA-IR: 33%
  reduction of insulin at t=0: 20%
  reduction of insulin at t=2 hr: 21%
C57/Bl6J DIO mice [4]
  OGTT glucose course: much lower than the vehicle control group
  glucose AUC from OGTT: 17055+/−769.1 units
C57/Bl6J DIO mice [5]
  OGTT glucose excursion following a glucose load: reduction in glucose excursion
